# Test results published in ChEMBL document CHEMBL5113443, “Design, synthesis and properties of peptide inhibitors based on BRCA1856-871” (Bioorg Med Chem Lett, 2022).
# Where a SMILES comes first, the peptide text is derived from it. The star is where a group is joined. Nicotinoyl(6-CF3) = O=C(c1ccc(C(F)(F)F)nc1)*; X1 = O=C(c1cncc(C(F)(F)F)c1)*; X5 = O=C(c1ccc[n+]([O-])c1)*; Nicotinoyl = O=C(c1cccnc1)*; X2 = O=C(c1cccnc1C(F)(F)F)*; X3 = O=C(c1cccnc1Br)*; X4 = Cc1ccncc1C(=O)*; X6 = O=C(c1cccnc1S)*
# Experiments:
# HEK293 = experiment: Cytotoxicity against HEK293 cells assessed as reduction in cell viability at 200 uM; assay type: toxicity, cell-based; conditions: human, hek293, 200 µM
# [1] = target: T1, DNA repair protein RAD51 homolog 1 (Homo sapiens) (UniProt Q06609); experiment: Binding affinity to RAD51 (158 to 180 residues) (unknown origin) assessed as beta-sheet content at 15 uM by circular dichroism spectroscopy (reference value: 17.7%)
# T1 sequence (whole entry): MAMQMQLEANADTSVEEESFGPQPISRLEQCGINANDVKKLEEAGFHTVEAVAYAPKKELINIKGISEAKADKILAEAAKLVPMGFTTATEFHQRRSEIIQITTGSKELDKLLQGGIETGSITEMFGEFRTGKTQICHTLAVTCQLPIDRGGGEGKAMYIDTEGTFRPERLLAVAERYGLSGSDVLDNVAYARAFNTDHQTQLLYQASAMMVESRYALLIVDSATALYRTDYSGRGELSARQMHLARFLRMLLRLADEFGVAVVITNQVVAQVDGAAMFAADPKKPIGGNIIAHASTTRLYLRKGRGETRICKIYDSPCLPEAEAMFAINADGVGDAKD
# MCF7 = experiment: Cytotoxicity against human MCF7 cells assessed as cell viability at 100 uM relative to control; assay type: functional; conditions: read-out: Activity
# [2] = target: T1, DNA repair protein RAD51 homolog 1 (Homo sapiens); experiment: Binding affinity to RAD51 (158 to 180 residues) (unknown origin) assessed as binding constant by fluorescence spectroscopy
# [3] = target: T1, DNA repair protein RAD51 homolog 1 (Homo sapiens); experiment: Binding affinity to RAD51 (158 to 180 residues) (unknown origin) assessed as random coil content at 15 uM by circular dichroism spectroscopy (reference value: 39.2%)
# [4] = target: T1, DNA repair protein RAD51 homolog 1 (Homo sapiens); experiment: Binding affinity to RAD51 (158 to 180 residues) (unknown origin) assessed as alpha-helical content at 15 uM by circular dichroism spectroscopy (reference value: 26.9%)
# [5] = target: T1, DNA repair protein RAD51 homolog 1 (Homo sapiens); experiment: Binding affinity to RAD51 (158 to 180 residues) (unknown origin) assessed as quenching rate constant by fluorescence spectroscopy
# [6] = target: T1, DNA repair protein RAD51 homolog 1 (Homo sapiens); experiment: Binding affinity to RAD51 (158 to 180 residues) (unknown origin) assessed as beta-turn content at 15 uM by circular dichroism spectroscopy (reference value: 16.2%)
# [7] = target: T1, DNA repair protein RAD51 homolog 1 (Homo sapiens); experiment: Binding affinity to RAD51 (158 to 180 residues) (unknown origin) assessed as reduction in fluorescence intensity by fluorescence spectroscopy; conditions: dose 6-30 µM, DDE = dose-dependent effect
Compound,Activity [1] [%],Binding constant [2],Activity [3] [%],Activity [4] [%],Kq [5],Activity [6] [%],Activity [7],Activity (HEK293),viability at 100 µM (MCF7) [%]
CC(C)C[C@H](NC(=O)[C@H](Cc1ccc(O)cc1)NC(=O)c1cncc(C(F)(F)F)c1)C(=O)N[C@@H](CCC(N)=O)C(=O)N[C@@H](CC(N)=O)C(=O)N[C@H](C(=O)N[C@@H](Cc1ccccc1)C(=O)N[C@@H](CCCCN)C(=O)N[C@H](C(=O)N[C@@H](CO)C(=O)N[C@@H](CCCCN)C(=O)N[C@@H](CCCNC(=N)N)C(=O)N[C@@H](CCC(N)=O)C(=O)N[C@@H](CO)C(=O)N[C@@H](Cc1ccccc1)C(=O)N[C@@H](C)C(=O)N1CCC[C@H]1C(N)=O)C(C)C)[C@@H](C)O (X1-YLQNTFKVSKRQSFAP-NH2),13.4,1.56 10^4/M,23.4,46.7,1.32 10^12/M,16.5,,Non-Toxic,71
CC(C)C[C@H](NC(=O)[C@@H](N)Cc1ccc(O)cc1)C(=O)N[C@@H](CCC(N)=O)C(=O)N[C@@H](CC(N)=O)C(=O)N[C@H](C(=O)N[C@@H](Cc1ccccc1)C(=O)N[C@@H](CCCCN)C(=O)N[C@H](C(=O)N[C@@H](CO)C(=O)N[C@@H](CCCCN)C(=O)N[C@@H](CCCNC(=N)N)C(=O)N[C@@H](CCC(N)=O)C(=O)N[C@@H](CO)C(=O)N[C@@H](Cc1ccccc1)C(=O)N[C@@H](C)C(=O)N1CCC[C@H]1C(=O)O)C(C)C)[C@@H](C)O (H-YLQNTFKVSKRQSFAP-OH),18.5,0.33 10^4/M,18,37.1,1.13 10^12/M,26.4,Dde,Non-Toxic,90.6
CC(C)C[C@H](NC(=O)[C@H](Cc1ccc(O)cc1)NC(=O)c1ccc(C(F)(F)F)nc1)C(=O)N[C@@H](CCC(N)=O)C(=O)N[C@@H](CC(N)=O)C(=O)N[C@H](C(=O)N[C@@H](Cc1ccccc1)C(=O)N[C@@H](CCCCN)C(=O)N[C@H](C(=O)N[C@@H](CO)C(=O)N[C@@H](CCCCN)C(=O)N[C@@H](CCCNC(=N)N)C(=O)N[C@@H](CCC(N)=O)C(=O)N[C@@H](CO)C(=O)N[C@@H](Cc1ccccc1)C(=O)N[C@@H](C)C(=O)N1CCC[C@H]1C(N)=O)C(C)C)[C@@H](C)O ({Nicotinoyl(6-CF3)}-YLQNTFKVSKRQSFAP-NH2),11.2,1.97 10^4/M,22.1,48.3,1.24 10^12/M,18.4,,Non-Toxic,79.1
CC(C)C[C@H](NC(=O)[C@H](Cc1ccc(O)cc1)NC(=O)c1cccnc1C(F)(F)F)C(=O)N[C@@H](CCC(N)=O)C(=O)N[C@@H](CC(N)=O)C(=O)N[C@H](C(=O)N[C@@H](Cc1ccccc1)C(=O)N[C@@H](CCCCN)C(=O)N[C@H](C(=O)N[C@@H](CO)C(=O)N[C@@H](CCCCN)C(=O)N[C@@H](CCCNC(=N)N)C(=O)N[C@@H](CCC(N)=O)C(=O)N[C@@H](CO)C(=O)N[C@@H](Cc1ccccc1)C(=O)N[C@@H](C)C(=O)N1CCC[C@H]1C(N)=O)C(C)C)[C@@H](C)O (X2-YLQNTFKVSKRQSFAP-NH2),26.3,4.07 10^4/M,10.8,51.3,0.61 10^12/M,11.6,,Non-Toxic,81.5

# Further lines, with some results ahead:
Activity [1] [%],Binding constant [2],Activity [3] [%],Activity [4] [%],Kq [5],Activity [6] [%],Activity [7],Compound,Activity (HEK293),viability at 100 µM (MCF7) [%]
13.9,1.26 10^4/M,22.6,43.4,0.96 10^12/M,20.1,,CC(C)C[C@H](NC(=O)[C@H](Cc1ccc(O)cc1)NC(=O)c1cccnc1)C(=O)N[C@@H](CCC(N)=O)C(=O)N[C@@H](CC(N)=O)C(=O)N[C@H](C(=O)N[C@@H](Cc1ccccc1)C(=O)N[C@@H](CCCCN)C(=O)N[C@H](C(=O)N[C@@H](CO)C(=O)N[C@@H](CCCCN)C(=O)N[C@@H](CCCNC(=N)N)C(=O)N[C@@H](CCC(N)=O)C(=O)N[C@@H](CO)C(=O)N[C@@H](Cc1ccccc1)C(=O)N[C@@H](C)C(=O)N1CCC[C@H]1C(N)=O)C(C)C)[C@@H](C)O (Nicotinoyl-YLQNTFKVSKRQSFAP-NH2),Non-Toxic,80.9
11.3,0.76 10^4/M,32.7,37.9,1.77 10^12/M,18.1,,Cc1ccncc1C(=O)N[C@@H](Cc1ccc(O)cc1)C(=O)N[C@@H](CC(C)C)C(=O)N[C@@H](CCC(N)=O)C(=O)N[C@@H](CC(N)=O)C(=O)N[C@H](C(=O)N[C@@H](Cc1ccccc1)C(=O)N[C@@H](CCCCN)C(=O)N[C@H](C(=O)N[C@@H](CO)C(=O)N[C@@H](CCCCN)C(=O)N[C@@H](CCCNC(=N)N)C(=O)N[C@@H](CCC(N)=O)C(=O)N[C@@H](CO)C(=O)N[C@@H](Cc1ccccc1)C(=O)N[C@@H](C)C(=O)N1CCC[C@H]1C(N)=O)C(C)C)[C@@H](C)O (X4-YLQNTFKVSKRQSFAP-NH2),,
13.1,0.18 10^4/M,27.6,37.7,1.7 10^12/M,21.6,,CC(C)C[C@H](NC(=O)[C@H](Cc1ccc(O)cc1)NC(=O)c1cccnc1Br)C(=O)N[C@@H](CCC(N)=O)C(=O)N[C@@H](CC(N)=O)C(=O)N[C@H](C(=O)N[C@@H](Cc1ccccc1)C(=O)N[C@@H](CCCCN)C(=O)N[C@H](C(=O)N[C@@H](CO)C(=O)N[C@@H](CCCCN)C(=O)N[C@@H](CCCNC(=N)N)C(=O)N[C@@H](CCC(N)=O)C(=O)N[C@@H](CO)C(=O)N[C@@H](Cc1ccccc1)C(=O)N[C@@H](C)C(=O)N1CCC[C@H]1C(N)=O)C(C)C)[C@@H](C)O (X3-YLQNTFKVSKRQSFAP-NH2),,
10.8,0.72 10^4/M,24.2,36.2,5.85 10^12/M,28.8,,CC(C)C[C@H](NC(=O)[C@H](Cc1ccc(O)cc1)NC(=O)c1cccnc1S)C(=O)N[C@@H](CCC(N)=O)C(=O)N[C@@H](CC(N)=O)C(=O)N[C@H](C(=O)N[C@@H](Cc1ccccc1)C(=O)N[C@@H](CCCCN)C(=O)N[C@H](C(=O)N[C@@H](CO)C(=O)N[C@@H](CCCCN)C(=O)N[C@@H](CCCNC(=N)N)C(=O)N[C@@H](CCC(N)=O)C(=O)N[C@@H](CO)C(=O)N[C@@H](Cc1ccccc1)C(=O)N[C@@H](C)C(=O)N1CCC[C@H]1C(N)=O)C(C)C)[C@@H](C)O (X6-YLQNTFKVSKRQSFAP-NH2),,
13.2,0.89 10^4/M,32.2,40.6,1.34 10^12/M,14,,CC(C)C[C@H](NC(=O)[C@H](Cc1ccc(O)cc1)NC(=O)c1ccc[n+]([O-])c1)C(=O)N[C@@H](CCC(N)=O)C(=O)N[C@@H](CC(N)=O)C(=O)N[C@H](C(=O)N[C@@H](Cc1ccccc1)C(=O)N[C@@H](CCCCN)C(=O)N[C@H](C(=O)N[C@@H](CO)C(=O)N[C@@H](CCCCN)C(=O)N[C@@H](CCCNC(=N)N)C(=O)N[C@@H](CCC(N)=O)C(=O)N[C@@H](CO)C(=O)N[C@@H](Cc1ccccc1)C(=O)N[C@@H](C)C(=O)N1CCC[C@H]1C(N)=O)C(C)C)[C@@H](C)O (X5-YLQNTFKVSKRQSFAP-NH2),,
